# Patent US8452543B2, “High throughput screening for antimicrobial dosing regimens” (priority 2005, dated 2013)
# Where two headings read alike, the source gives them in different places.
# Tested on: P. aeruginosa PA 27853 and resistant isolates MR1, MR2, MR3
# Assay: microbe, parasite or virus in culture
# Assay type: cell-based, Pseudomonas aeruginosa
# Details: for MIC: Pseudomonas aeruginosa
# Experimental: Minimum inhibitory concentration (MIC)/minimum bactericidal concentration (MBC) were determined in Ca-MHB using a modified macrobroth dilution method as described by the CLSI (10). The final concentration of bacteria in each macrobroth dilution tube was approximately 5×10^5 cfu/ml of Ca-MHB. Serial twofold dilutions of meropenem were used. […] Samples (50 μl) from clear tubes and the cloudy tube with the highest drug concentration were plated on Mueller-Hinton agar (MHA) plates (Hardy Diagnostics, Santa Maria, Calif.). […] Drug carry-over effect was assessed by visual inspection of the distribution of colonies on media plates. The studies were conducted in duplicate and repeated at least once on a separate day.
smiles,measurement,setting,value
C[C@@H](O)[C@H]1C(=O)N2C(C(=O)O)=C(S[C@@H]3CN[C@H](C(=O)N(C)C)C3)[C@H](C)[C@H]12 [meropenem],MIC,OprD− isolate used in vivo,4 µg/mL
same,MIC,"strain MR1 (Placebo exposure, OprD−), macrobroth method",4 µg/mL
same,MIC,"strain MR2 (Cmin/MIC 0.5, OprD− & Mex+), macrobroth method",64 µg/mL
same,MIC,"strain MR3 (Cmin/MIC 1.7, OprD− & Mex+), macrobroth method, read-out: MIC",32 µg/mL
same,MIC,"strain PA 27853, macrobroth method",1 µg/mL
same,stability of resistance,resistant isolates recovered from MEM-supplemented plates,phenotypically stable
